Source: ChEMBL document CHEMBL6071156 (Eur J Med Chem, 2024)
Active and inactive are the calls of the source. No cut-off for these calls is given here.

Legend:
[1] = C0 in C57BL/6 mouse plasma at 2.5 mg/kg, iv measured upto 24 hrs post dosing by LC-MS/MS; assay type: ADME, organism-based; conditions: in vivo
Chikungunya virus = assay type: functional, organism-based; conditions: dose 300.0 mg/kg/day, time 5-6 day
[2] = Tmax in C57BL/6 mouse plasma at 10 mg/kg, po measured 4 hrs post dosing by LC-MS/MS; assay type: ADME, organism-based; conditions: in vivo
[3] = molecular target: Polyprotein P1234 (Chikungunya virus (strain S27-African prototype) (CHIKV)) (UniProt Q8JUX6); conditions: dose 0.27-600 µM
Sequence of Polyprotein P1234 (Chikungunya virus (strain S27-African prototype) (CHIKV)) (Q8JUX6 whole entry): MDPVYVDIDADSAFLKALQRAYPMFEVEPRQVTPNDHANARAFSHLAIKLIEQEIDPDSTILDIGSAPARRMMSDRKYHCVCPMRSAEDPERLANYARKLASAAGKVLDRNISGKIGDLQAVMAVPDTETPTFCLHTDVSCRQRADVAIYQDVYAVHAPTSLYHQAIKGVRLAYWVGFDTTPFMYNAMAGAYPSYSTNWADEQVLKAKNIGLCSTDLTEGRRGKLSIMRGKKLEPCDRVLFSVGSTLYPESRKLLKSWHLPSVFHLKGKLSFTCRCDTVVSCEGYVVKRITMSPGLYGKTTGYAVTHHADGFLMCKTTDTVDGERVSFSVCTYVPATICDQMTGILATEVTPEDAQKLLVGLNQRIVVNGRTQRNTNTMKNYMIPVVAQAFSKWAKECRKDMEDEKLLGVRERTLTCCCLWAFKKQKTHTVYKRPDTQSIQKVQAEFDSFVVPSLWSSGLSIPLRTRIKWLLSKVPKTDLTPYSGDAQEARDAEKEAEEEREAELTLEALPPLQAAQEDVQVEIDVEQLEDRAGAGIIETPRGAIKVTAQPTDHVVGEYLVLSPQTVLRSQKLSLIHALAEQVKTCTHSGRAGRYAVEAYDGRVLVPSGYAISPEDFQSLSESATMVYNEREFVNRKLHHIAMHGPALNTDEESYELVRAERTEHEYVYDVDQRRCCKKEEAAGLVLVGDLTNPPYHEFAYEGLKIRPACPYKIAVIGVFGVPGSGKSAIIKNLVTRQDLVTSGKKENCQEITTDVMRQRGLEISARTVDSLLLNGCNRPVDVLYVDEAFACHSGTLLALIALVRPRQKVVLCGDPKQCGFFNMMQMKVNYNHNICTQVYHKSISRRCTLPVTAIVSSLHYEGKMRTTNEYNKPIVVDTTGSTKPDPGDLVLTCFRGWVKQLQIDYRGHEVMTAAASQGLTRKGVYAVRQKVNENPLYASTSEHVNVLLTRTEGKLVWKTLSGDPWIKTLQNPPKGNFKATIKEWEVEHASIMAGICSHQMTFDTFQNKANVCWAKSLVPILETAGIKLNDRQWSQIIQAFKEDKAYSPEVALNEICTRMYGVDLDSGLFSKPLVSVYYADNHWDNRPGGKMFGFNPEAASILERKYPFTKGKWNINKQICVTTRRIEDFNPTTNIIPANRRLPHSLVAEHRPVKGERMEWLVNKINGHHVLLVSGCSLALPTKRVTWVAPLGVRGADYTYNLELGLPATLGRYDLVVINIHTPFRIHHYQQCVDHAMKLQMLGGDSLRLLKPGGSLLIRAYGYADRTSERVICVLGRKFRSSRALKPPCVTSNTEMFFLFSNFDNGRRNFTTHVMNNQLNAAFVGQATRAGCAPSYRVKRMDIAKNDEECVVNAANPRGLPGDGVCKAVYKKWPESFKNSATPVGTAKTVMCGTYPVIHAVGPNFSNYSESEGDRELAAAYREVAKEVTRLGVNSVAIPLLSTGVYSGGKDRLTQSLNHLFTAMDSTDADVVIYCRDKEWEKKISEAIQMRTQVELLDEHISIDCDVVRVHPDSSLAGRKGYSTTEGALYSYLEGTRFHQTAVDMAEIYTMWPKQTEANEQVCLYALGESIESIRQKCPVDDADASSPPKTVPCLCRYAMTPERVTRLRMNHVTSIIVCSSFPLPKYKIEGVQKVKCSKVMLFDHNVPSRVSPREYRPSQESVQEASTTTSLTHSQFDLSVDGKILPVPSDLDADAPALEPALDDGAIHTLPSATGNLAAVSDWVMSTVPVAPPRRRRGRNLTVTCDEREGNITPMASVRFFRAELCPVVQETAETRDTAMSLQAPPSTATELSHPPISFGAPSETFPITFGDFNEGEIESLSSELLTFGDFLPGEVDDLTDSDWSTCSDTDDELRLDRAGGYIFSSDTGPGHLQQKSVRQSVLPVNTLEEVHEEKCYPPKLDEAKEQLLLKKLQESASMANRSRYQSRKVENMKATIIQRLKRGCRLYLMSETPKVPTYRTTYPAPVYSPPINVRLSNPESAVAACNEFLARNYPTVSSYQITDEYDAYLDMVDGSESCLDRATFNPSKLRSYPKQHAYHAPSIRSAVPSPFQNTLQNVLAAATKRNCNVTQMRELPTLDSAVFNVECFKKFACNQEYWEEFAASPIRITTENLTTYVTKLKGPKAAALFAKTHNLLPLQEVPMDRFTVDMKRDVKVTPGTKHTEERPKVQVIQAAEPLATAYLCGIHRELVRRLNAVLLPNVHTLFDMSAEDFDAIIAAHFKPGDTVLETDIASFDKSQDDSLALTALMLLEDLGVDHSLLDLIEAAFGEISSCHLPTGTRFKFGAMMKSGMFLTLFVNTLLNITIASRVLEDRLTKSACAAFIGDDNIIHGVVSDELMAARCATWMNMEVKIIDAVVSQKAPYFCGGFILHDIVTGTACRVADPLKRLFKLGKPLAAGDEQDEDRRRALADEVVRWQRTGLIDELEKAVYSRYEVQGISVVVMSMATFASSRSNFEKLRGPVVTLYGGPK

[4] = Oral bioavailability in C57BL/6 mouse plasma at 10 mg/kg, measured upto 24 hrs by LC-MS/MS; assay type: ADME, organism-based; conditions: in vivo
[5] = Volume of distribution at steady state in C57BL/6 mouse plasma at 2.5 mg/kg, iv measured upto 24 hrs post dosing by LC-MS/MS; assay type: ADME, organism-based; conditions: in vivo
Cytochrome P450 2B6 = molecular target: T1, Cytochrome P450 2B6 (Homo sapiens, UniProt P20813); assay: Inhibition of CYP2B6 (unknown origin); assay type: ADME
T1 sequence (P20813 whole entry): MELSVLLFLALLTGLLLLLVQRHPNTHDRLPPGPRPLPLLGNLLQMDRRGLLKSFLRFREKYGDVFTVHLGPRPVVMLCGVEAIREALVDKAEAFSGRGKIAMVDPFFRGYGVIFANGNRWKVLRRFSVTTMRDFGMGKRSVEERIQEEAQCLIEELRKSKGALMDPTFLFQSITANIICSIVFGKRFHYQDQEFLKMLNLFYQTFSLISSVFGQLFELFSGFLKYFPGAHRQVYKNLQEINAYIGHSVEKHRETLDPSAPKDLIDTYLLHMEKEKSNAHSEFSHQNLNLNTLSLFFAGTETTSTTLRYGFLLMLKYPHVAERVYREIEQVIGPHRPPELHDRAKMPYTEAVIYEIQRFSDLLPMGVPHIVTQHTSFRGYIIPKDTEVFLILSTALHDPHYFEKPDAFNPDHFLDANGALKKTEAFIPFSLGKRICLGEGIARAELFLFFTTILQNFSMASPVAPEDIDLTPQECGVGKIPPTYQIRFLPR

[6] = Metabolic stability in human liver S9 fraction assessed as half life by HPLC-MS/MS analysis; assay type: ADME, subcellular
[7] = Toxicity in Sham-infected C57BL/6 mouse model assessed as footpad swelling at 300 mg/kg/day, ip measured after 6 days post infection (reference value: -4.6+/-5.5); assay type: organism-based; conditions: in vivo, 144 h, time 6 day
[8] = Half life in C57BL/6 mouse plasma at 10 mg/kg, po measured […] post dosing by LC-MS/MS; assay type: ADME, organism-based; conditions: in vivo
Cytochrome P450 2C19 = Cytochrome P450 2C19 (Homo sapiens, UniProt P33261); assay: Inhibition of CYP2C19 (unknown origin); assay type: ADME
Sequence of Cytochrome P450 2C19 (P33261 whole entry): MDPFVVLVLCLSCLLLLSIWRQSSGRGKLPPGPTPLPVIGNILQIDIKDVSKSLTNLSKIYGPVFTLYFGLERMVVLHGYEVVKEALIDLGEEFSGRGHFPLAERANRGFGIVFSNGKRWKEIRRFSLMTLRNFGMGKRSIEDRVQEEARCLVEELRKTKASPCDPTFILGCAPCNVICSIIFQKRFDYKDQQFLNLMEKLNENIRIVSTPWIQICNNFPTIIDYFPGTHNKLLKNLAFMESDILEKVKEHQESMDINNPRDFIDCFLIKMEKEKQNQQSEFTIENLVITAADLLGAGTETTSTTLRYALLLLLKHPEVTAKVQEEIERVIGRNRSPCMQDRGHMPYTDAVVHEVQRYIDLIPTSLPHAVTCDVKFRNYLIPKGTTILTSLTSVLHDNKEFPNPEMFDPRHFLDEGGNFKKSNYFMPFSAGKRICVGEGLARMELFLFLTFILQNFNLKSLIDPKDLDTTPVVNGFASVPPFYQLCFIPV

CYP1A = molecular target: T2, CYP1A (Homo sapiens, UniProt P04798+P05177); assay: Inhibition of CYP1A (unknown origin); assay type: ADME, protein assay
T2 sequence (P04798 whole entry): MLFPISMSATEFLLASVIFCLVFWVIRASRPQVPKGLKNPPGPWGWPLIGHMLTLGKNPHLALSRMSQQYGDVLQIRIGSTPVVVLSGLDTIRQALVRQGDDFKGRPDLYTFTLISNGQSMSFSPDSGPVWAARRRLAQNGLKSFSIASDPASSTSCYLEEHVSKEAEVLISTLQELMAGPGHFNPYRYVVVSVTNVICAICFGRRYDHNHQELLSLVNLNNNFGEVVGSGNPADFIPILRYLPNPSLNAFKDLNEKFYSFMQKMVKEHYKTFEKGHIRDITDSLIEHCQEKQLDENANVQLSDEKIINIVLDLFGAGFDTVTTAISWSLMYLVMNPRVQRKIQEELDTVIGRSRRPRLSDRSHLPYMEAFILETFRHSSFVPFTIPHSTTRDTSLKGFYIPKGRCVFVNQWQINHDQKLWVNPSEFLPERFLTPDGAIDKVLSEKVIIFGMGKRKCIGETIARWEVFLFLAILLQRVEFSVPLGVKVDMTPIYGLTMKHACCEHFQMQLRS
T2 sequence (P05177 whole entry): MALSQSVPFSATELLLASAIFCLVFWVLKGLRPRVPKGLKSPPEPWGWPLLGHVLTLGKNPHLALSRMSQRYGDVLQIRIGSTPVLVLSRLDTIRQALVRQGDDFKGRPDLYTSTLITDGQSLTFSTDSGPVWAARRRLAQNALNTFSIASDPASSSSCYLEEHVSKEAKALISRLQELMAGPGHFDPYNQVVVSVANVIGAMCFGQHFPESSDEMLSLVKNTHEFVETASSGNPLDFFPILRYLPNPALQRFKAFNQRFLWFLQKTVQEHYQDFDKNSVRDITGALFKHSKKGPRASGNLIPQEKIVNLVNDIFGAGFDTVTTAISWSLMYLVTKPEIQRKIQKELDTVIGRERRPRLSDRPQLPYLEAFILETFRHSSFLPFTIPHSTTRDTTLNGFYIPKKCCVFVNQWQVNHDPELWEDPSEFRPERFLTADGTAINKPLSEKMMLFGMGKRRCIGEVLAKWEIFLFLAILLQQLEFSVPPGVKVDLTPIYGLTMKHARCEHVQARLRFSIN

[9] = Cytotoxicity against green monkey Vero 76 cells assessed as reduction in cell viability; assay type: toxicity, cell-based; conditions: chlorocebus sabaeus
Cytochrome P450 2C9 = Cytochrome P450 2C9 (Homo sapiens, UniProt P11712); assay: Inhibition of CYP2C9 (unknown origin); assay type: ADME
Sequence of Cytochrome P450 2C9 (P11712 whole entry): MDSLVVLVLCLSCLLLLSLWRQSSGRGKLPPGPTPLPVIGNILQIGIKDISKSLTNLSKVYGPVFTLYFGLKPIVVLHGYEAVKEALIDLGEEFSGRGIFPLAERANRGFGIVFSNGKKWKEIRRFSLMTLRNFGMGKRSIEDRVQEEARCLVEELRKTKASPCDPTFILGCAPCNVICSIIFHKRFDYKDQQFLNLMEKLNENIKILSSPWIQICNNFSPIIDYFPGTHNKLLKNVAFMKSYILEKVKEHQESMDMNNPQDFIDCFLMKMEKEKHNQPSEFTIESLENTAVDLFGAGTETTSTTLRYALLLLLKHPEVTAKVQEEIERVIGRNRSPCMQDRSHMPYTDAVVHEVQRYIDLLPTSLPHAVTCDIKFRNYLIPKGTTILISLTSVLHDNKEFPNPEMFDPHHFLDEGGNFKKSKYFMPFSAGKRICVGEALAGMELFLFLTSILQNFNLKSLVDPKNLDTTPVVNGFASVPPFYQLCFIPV

Cav1.2 = assay: Antagonist activity at hCav1.2 expressed in HEK293 cells by Electrophysiology; assay type: toxicity, cell-based; conditions: human, HEK293 cells expressing hCav1.2
Kir2.1 = assay: Antagonist activity at hKir2.1 expressed in HEK293 cells by Electrophysiology; assay type: toxicity, cell-based; conditions: human, HEK293 cells expressing hKir2.1
[10] = Half life in C57BL/6 mouse plasma at 2.5 mg/kg, iv measured upto 24 hrs post dosing by LC-MS/MS; assay type: ADME, organism-based; conditions: in vivo
[11] = Toxicity in C57BL/6 mouse model assessed as effect on DBILI level at 300 mg/kg/day, ip measured after 6 days post infection (reference value: 0.25 to 0.33); assay type: organism-based; conditions: in vivo, 144 h, time 6 day
[12] = Toxicity in C57BL/6 mouse model assessed as effect on BUN level at 300 mg/kg/day, ip measured after 6 days post infection (reference value: 20 to 30); assay type: organism-based; conditions: in vivo, 144 h, time 6 day
[13] = Toxicity in C57BL/6 mouse model assessed as effect on AST level at 300 mg/kg/day, ip measured after 6 days post infection (reference value: 64 to 100); assay type: organism-based; conditions: in vivo, 144 h, time 6 day

CC1CCNc2c(C(=O)NC/C=C/S(C)(=O)=O)cccc21 (stereo not given)
C0 [1]: 966.5 ng/mL
Activity (Chikungunya virus): Active
Tmax [2]: 4 h
inhibition [3]: Dose-Dependent Effect
F [4]: 95.6%
Vdss [5]: 1.9 L/kg
IC50 (Cytochrome P450 2B6): > 100 µM
t1/2 [6]: 1.73 h
Activity [7]: -1%
t1/2 [8]: 0.83 h
IC50 (Cytochrome P450 2C19): > 100 µM
IC50 (CYP1A): > 100 µM
CC50 [9]: > 50 µM
IC50 (Cytochrome P450 2C9): > 100 µM
IC50 (Cav1.2): > 100 µM
IC50 (Kir2.1): > 100 µM
t1/2 [10]: 6 min
Activity [11]: 0.14 mg/dL
Activity [12]: 18 mg/dL
Activity [13]: 64 U/L
